Results reported in patent US5192784A, “Etanidazole injectable solution” (Du Pont Merck Pharmaceutical Company, priority 1992, dated 1993).
Values after ≈ are worked out from the molar mass of the structure shown.

Key:
[1] = Crystal formation on storage at 4° C., autoclaved vs non-autoclaved (reheated samples); type: physicochemical
Method: Sixteen samples of etanidazole solutions at various pHs, which contained crystals, were heated in a 56° C. water bath for 1 hour to dissolve the crystals. After heating, the samples were divided evenly.

[2] = Effects of additives on apparent solubility / crystallization of etanidazole solutions; type: physicochemical; settings: for time to formation of crystalline material: excess or 150 mg/ml
Method: The effects of additives on the apparent solubility of etanidazole were evaluated. […] Possible effects of additives are to inhibit the crystallization of etanidazole hydrate and to solubilize etanidazole hydrate.
Solutions were mixed by rotating end-to-end for 72 hours at room temperature. […] These were placed in 4° C. storage. […] In the case of solutions containing 1% ethanolamine or 0.1% diethanolamine as additives and excess or 150 mg/ml etanidazole, crystalline material had found within 24 hours at room temperature, but the 50 mg/ml and 100 mg/ml solutions remained clear at room temperature for 72 hours. These samples were placed at 4° C. […] After 2 months at 4° C., 1 of the 3 vials remained free of crystals. The 50 mg/ml etanidazole solution with 0.1% diethanolamine remained clear for at least 2 months at 4° C.

[3] = Effect of initial etanidazole concentration on rate of decomposition in 0.05M citrate pH 5.5, 80° C.; type: physicochemical
Method: (§1) The k values shown in Tables 1-5 and FIG. 1 should be multipled by a factor of 2.303 to provide the actual k value.
(§2) The chemical stability of etanidazole was evaluated in solutions of varying composition stored at 80° C. Etanidazole was placed into suitable containers and sufficient buffer was added to result in a 1 mg/ml solution. A constant ionic strength of 0.3 was maintained with potassium chloride. All solutions were prepared in triplicate. The solution was divided into 2 ml sealed glass vials and was placed into cardboard storage boxes to protect the compound from light. At appropriate intervals, samples were removed from the stability chamber and cooled to room temperature. An aliquot of the sample was diluted with mobile phase containing internal standard prior to HPLC analysis. For those pH conditions where degradation was rapid, the sample aliquot was immediately quenched to neutral pH and room temperature.
(§3) Data were analyzed using methods as described by Martin et al. in "Physical Pharmacy", 3rd ed, pp 352-395 (1983).
The effect of initial etanidazole concentration on the rate of decomposition was examined in 0.05M citrate pH 5.5, at 80° C. Initial concentrations of 1, 25 and 50 mg/ml were employed.

[4] = Effect of ionic strength on rate of decomposition in 0.1M acetate, pH 5.0, 80° C.; type: physicochemical
Method: as §1, §2, §3
The impact of the ionic strength of the buffer system on the rate of decomposition was examined in 0.1M acetate, pH 5.0, at 80° C. Ionic strengths of 0.15, 0.30 and 0.60 were employed.

[5] = Effect of autoclaving on crystal formation at 4° C. over 43 days, pH 3.0, 3.5 and 4.0; type: physicochemical; settings: for samples that developed crystals: 50 mg/ml
Method: Further studies were done in which etanidazole (50 mg/ml) solutions at pH 3.0, 3.5, and 4.0 were prepared and the effect of autoclaving was evaluated. At pH 3.0, 0 of 48 autoclaved samples and 0 of 48 non-autoclaved samples developed crystals when stored at 4° C. over 43 days. At pH 3.5, 0 of 49 autoclaved samples developed crystals, and 3 of 50 non-autoclaved samples developed crystals when stored at 4° C. over 43 days. At pH 4.0, 0 of 50 autoclaved samples developed crystals when stored at 4° C. for 43 days, but 1 of 50 non-autoclaved samples developed crystals.

[6] = physchem

## O=C(Cn1ccnc1[N+](=O)[O-])NCCO [Etanidazole]
[1]; 50 mg/ml, aqueous buffer, 4° C.
  crystalline particulates on storage: occasionally develop crystalline particulates
[1]; various pHs, heated 56° C. 1 hour, then 4 days at 4° C.
  non-autoclaved samples containing crystals again: 3 of 8
[2]; 0.1% diethanolamine, 50 mg/ml, 4° C.
  time solution remained clear: at least 2 months
[2]; 0.1% diethanolamine, 50 mg/ml, room temperature
  time solution remained clear: 72 h
[2]; 0.1% diethanolamine, 100 mg/ml, 4° C., after 2 months
  vials that remained free of crystals: 1 of the 3
[2]; 0.1% diethanolamine, 100 mg/ml, 4° C., within 24 hours
  vials showing crystallization: 1 of 3
[2]; 0.1% diethanolamine, 100 mg/ml, room temperature
  time solution remained clear: 72 h
[2]; 0.1% diethanolamine, room temperature
  time to formation of crystalline material: ≤ 24 h
[2]; 1% ethanolamine, 50 mg/ml, 4° C.
  time solution remained clear: at least 1 month
[2]; 1% ethanolamine, 50 mg/ml, room temperature
  time solution remained clear: 72 h
[2]; 1% ethanolamine, 100 mg/ml, 4° C.
  time to crystallization: ≤ 24 h
[2]; 1% ethanolamine, 100 mg/ml, room temperature
  time solution remained clear: 72 h
[2]; 1% ethanolamine, room temperature
  time to formation of crystalline material: ≤ 24 h
[2]; 1% imidazole and excess etanidazole, 72 hours, room temperature
  solid form of excess solid: appeared to have been converted to etanidazole hydrate
[2]; 1% imidazole, 50 mg/ml, 4° C. (up to)
  time solution remained clear: up to 1 month
[2]; 1% imidazole, 100 mg/ml, 4° C. (up to)
  time solution remained clear: up to 1 month
[2]; 1% imidazole, 150 mg/ml, 4° C.
  time to crystal formation: ≤ 2 h
[2]; 1% imidazole, up to 150 mg/ml etanidazole, room temperature, 72 hours
  appearance of solution: remained clear and free of particulates
[2]; imidazole, ethanolamine, diethanolamine, room temperature or 4° C.
  effect of additives on etanidazole solutions: these additives stabilize etanidazole solutions, inhibiting crystal formation
[3]; 1, 25 and 50 mg/ml
  effect of initial concentration on degradation: not concentration dependent in this range
[3]; initial concentration 1 mg/ml
  kobs, observed first-order rate constant: 0.00957 ± 7.37e-05 day⁻¹
[3]; initial concentration 25 mg/ml
  kobs, observed first-order rate constant: 0.0127 ± 0.000586 day⁻¹
[3]; initial concentration 50 mg/ml
  kobs, observed first-order rate constant: 0.0127 ± 0.000153 day⁻¹
[4]; 0.15, 0.30 and 0.60, 0.1M acetate pH 5.0, 80° C.
  effect of ionic strength on degradation rate: negligible effect on the degradation rate
[4]; ionic strength 0.15, 0.1M acetate pH 5.0, 80° C.
  kobs, observed first-order rate constant: 0.0059 ± 0.000108 day⁻¹
[4]; ionic strength 0.30, 0.1M acetate pH 5.0, 80° C.
  kobs, observed first-order rate constant: 0.00516 ± 0.000104 day⁻¹
[4]; ionic strength 0.60, 0.1M acetate pH 5.0, 80° C.
  kobs, observed first-order rate constant: 0.00518 ± 0.000306 day⁻¹
[5]; pH 3.0, autoclaved, 4° C. over 43 days
  samples that developed crystals: 0 of 48
[5]; pH 3.0, non-autoclaved, 4° C. over 43 days
  samples that developed crystals: 0 of 48
[5]; pH 3.5, autoclaved, 4° C. over 43 days
  samples that developed crystals: 0 of 49
[5]; pH 3.5, non-autoclaved, 4° C. over 43 days
  samples that developed crystals: 3 of 50
[5]; pH 4.0, autoclaved, 4° C. for 43 days
  samples that developed crystals: 0 of 50
[5]; pH 4.0, non-autoclaved, 4° C., 43 days
  samples that developed crystals: 1 of 50
[5]; subsequent storage at 4° C.
  effect of autoclaving on crystal formation: autoclaving prevents the formation of crystals
[6]; initial dissolved concentration (before crystals appeared)
  solubility: > 150 mg/mL
[6]; solubility
  solubility at 24 h: 59.2 to 71.7 mg/mL (≈ 276 to 335 mM)
[6]; water, pH 6.5, water, solubility in water
  solubility at 24 h: 68.1 mg/mL (≈ 318 mM)
